In patent US11986466B2, “Methods of treating solid tumors with CCR2 antagonists” (CHEMOCENTRYX, INC., priority 2018, dated 2024):
“Also recorded” adds a separate entry of the source.

Legend:
[1] = Plasma concentration of Compound 1 after daily oral dosing; type: in vivo, mice
Procedure: (§1) (A) Mice were orally dosed for Compound 1 daily at a lower concentration (20 mg/kg per day) or a higher concentration (60 mg/kg per day) for consecutive ten days. Plasma concentration of Compound 1 was detected by chemistry analyst 24 hours after the last dosing. (B) The same groups of mice in panel (A) were recorded for body weight before the first and after the last oral administration (n=4 per group). Statistical analysis is performed by two-way ANOVA in GraphPad PRISM (GraphPad Software, San Diego, CA).
(§2) Compound 1 is an orally-bioavailable CCR2 antagonist. […] For the experimental treatment regimen, we administered Compound 1 daily via oral gavage, starting on the same day of tumor implantation (FIG. 1a). […] Thus, Compound 1 blocked tumor growth in an inflammation and macrophages dependent model of T cell lymphoma.

[2] = system: neutrophil-like cells (CD11b- and Ly6G-positive cells); test: Flow cytometry of neutrophils / neutrophil-like cells in ear tumor microenvironment; type: in vivo, C57BL/6 mice
Description: (§3) FIG. 3A-D. Compound 1 specifically targets macrophages, but not neutrophils. (A, B) Macrophages, defined by the CD11b+/F4/80+ cell populations in flow analysis, were presented in either percentage or absolute numbers in ear TME after only two daily doses of Compound 1 (dosages are indicated in the figure, * p<05, ** p<01 vs vehicle control). (C, D) Single cell suspension from the same tissues as in (A) were stained with antibodies for CD11b, F4/80, CCR2, Ly6G, and Ly6C. Cells gated on CD11b were further analyzed to differentiate the subpopulations. Solid circles indicate the cells which are targeted by Compound 1. Dotted circles circles indicate the cells which are not blocked by Compound 1.
(§4) FIG. 4A-D. Enhanced inflammation is associated with CCR2 antagonism by Compound 1 in the tumor microenvironment. (A, B) Ear tissues were collected from mice treated by Compound 1 (60 mg/kg) or vehicle on day 7. Representative images for HE sections and IHC staining with anti-F4/80 were shown for the ear tissues from Compound 1 and vehicle treated group. (C, D) Ears from day 7 were also analyzed by flow cytometry to quantify the numbers of the two major myeloid subpopulations in TME with antibodies for CD11b, F4/80 and Ly6G.
(§5) Flow cytometry for mouse ear tissues, lymph nodes, and spleens. Anti-mouse CD45 (clone 30-F11), CD11b (M1/70), F4/80 (BM8), Ly6G (1A8), Ly6C (HK1.4), IFN-γ (XMG1.2) and CD8 (5H10-1) Abs were purchased from BioLegend (San Diego, CA). Ears or tumor tissues were digested to obtain skin cell suspensions as described, Lymph nodes or spleens were directly minced and filtered through cell strainers with 100 μm micron pores (Thermo Fisher Scientific, Waltham, MA). Red blood cells in the spleen samples were removed by RBC lysis buffer (BioLegend). Intracellular staining was done after incubating cells for 4 h with brefeldin A and PMA/ionomycin as described. Flow cytometry was performed using an Acuri C6 or LSR II (BD Biosciences, San Jose, CA) in conjunction with FlowJo analysis software (Tree Star, San Carlos, CA).

MBL2 tumors [3] = test: Cervical draining lymph node size (lymph node metastasis) in DNFB-MBL2 model; type: in vivo, C57BL/6 mice; conditions: day 15, Compound 1 alone
Procedure: (§6) FIG. 7A-E. CD8 T cells are compulsory in CCR2 antagonist-mediated anti-tumor immunity. (A) Tumor tissues were collected from mice euthanized after two weeks of treatment. Groups are as indicated in the graph. IHC staining with CD8a antibody was performed. The numbers of CD8 positive T cells were counted by taking three random images of HPF (high power field) in each section from all four mice per group. (B) Scheme for neutralizing CD8 T cells along with Compound 1 treatment. Neutralizing anti-CD8 or rat-IgG2a was administrated via intraperitoneal injection one day before MBL2 tumor inoculation followed by a second dose after 7 days. Tumor formation was examined in two weeks after the treatment with Compound 1 or vehicle. (C) Mice treated in experiment (B) were euthanized on day 3 for flow analysis of the cervical draining lymph nodes in order to determine the effect of CD8 depletion (three mice per group). (D) Mice were euthanized on day 15 after the two weeks of Compound 1/vehicle treatment with or without CD8 T cell neutralization. Ear thickness is measured for presenting tumor size. (E) Draining lymph nodes are also measured for the lymph node metastasis (n=4).
Next, we administrated neutralizing CD8 antibodies by IP injection concurrently with the Compound 1 treatment (FIG. 7B). […]

[4] = system: CD11b+/F4/80+ macrophages; test: Flow cytometry of macrophages in ear tumor microenvironment; type: in vivo, C57BL/6 mice
Description: as §3, §5

[5] = H&E histology and appearance of tumor-bearing ears; type: in vivo, C57BL/6 mice; conditions: day 7, 60 mg/kg
Procedure: as §4
(§7) H&E and Histoimmunochemistry. After mouse ear tumors were surgically removed at the ear base, the ear sample was cut into two parts along the long axis and placed in RNA later for RNA extraction or into 10% formalin for hematoxylin and eosin (H&E) staining or immunohistochemical staining with purified mouse antibodies (anti-CD8 and anti-F4/80 from Biolegend, San Diego, CA).

[6] = system: cytokines and biomarkers produced from the TME; test: Quantitative RT-PCR of cytokines and biomarkers in ear tissues; type: in vivo, C57BL/6 mice
Procedure: FIG. 5A-C. Compound 1 treatment altered the expression of cytokines and biomarkers produced from the TME. Quantitative RT-PCR was performed for the ear tissues collected on day 7. Genes that are involved in cancer inflammation and immunity crosstalk are selectively detected. Comparative expression is performed between the Compound 1 and vehicle treated groups. […] Gene expression values are normalized to endogenous expression of GAPDH (* p<05, ** p<0.01; n=3 mice per group).
FIG. 6. Compound 1 treatment altered the expression of cytokines and biomarkers produced from the TME. Quantitative RT-PCR was performed for the ear tissues collected on day 7. Genes that are involved in immune suppression and anti-inflammation are selectively detected. Comparative expression is performed between the Compound 1 and vehicle treated groups. Gene expression values are normalized to endogenous expression of GAPDH (n=3 mice per group).
Quantitative real-time PCR. RNA (<2 μg per sample) was converted into cDNA with the high-capacity first-strand cDNA Kit (Qiagen). Real-time PCR was performed on a StepOne Plus Real-time PCR system (Applied Biosystem, Carlsbad, CA). QPCR primer pairs were purchased from Integrated DNA technologies (Coralville, Iowa).

[7] = Body weight and tolerability after daily oral dosing; type: in vivo, mice; conditions: 20 or 60 mg/kg daily oral
Procedure: as §1, §2

CD8+ T cells = test: IHC staining of tumor tissue with CD8a antibody; type: in vivo, C57BL/6 mice; conditions: two weeks of treatment, dose-dependent, vs untreated and vehicle
Procedure: as §6
H&E and Histoimmunochemistry. […]

MBL2 tumors [8] = test: MBL2/DNFB mouse ear skin T cell lymphoma model: tumor growth (ear thickness, ear weight); type: in vivo, C57BL/6 mice
Procedure: Animals and cell lines. Female C57BL/6 mice (6-8 weeks old) were purchased from Charles River (Hollister, CA) and housed in animal facilities at University of California Davis (UCDAVIS), Sacramento, CA All animal experiments were conducted in accordance with the guidelines and approval of the Institutional Animal Care and Usage Committee at UCDAVIS. The MBL2 cell line is an established cell line derived from Moloney MuLV-induced T-cell lymphoma in C57BL/6 mice, in which the gag gene was deleted from the genome in order to lower virus-dependent immunogenicity. MBL2 cells were cultured in DMEM (Invitrogen, Carlsbad, CA) with 10% heat-inactivated FBS.
Establishment of MBL2 tumors in mice. The method of establishing mouse ear skin tumors was previously described, Briefly, PBS-washed MBL2 cells (4×10^5 in 20 μl PBS) were injected into the dermal space under the central dorsal surface of the ears and above the cartilage plane using a 28 g needle. Mice were then topically treated one time with DNFB (1-Fluoro-2, 4-dinitrobenzene, 0.5% in a vehicle consisting of 4:1 (v/v) acetone and olive oil, 10 μl/ear) (Sigma, St. Louis, CA) on dorsal ear skins. Tumor growth was assessed for maximum ear thickness using a digital caliper, or by weight for the whole tumor-bearing ears removed from ear baseline. The endpoint determination is based on the allowed maximal ear tumor size, or local erosion and bleeding, which usually occurred within two weeks after implantation.
Tumor treatment by CCR2 antagonist and/or anti-PD1. Small molecule compounds, Compound 1, either in a high concentration (6 mg/ml) or a low concentration (2 mg/ml), as well as vehicle control were all provided by ChemoCentryx (Mountain View, CA) in a lab-ready formulation. In therapeutic application, oral administration through gavage of Compound 1 or vehicle started on the same day of MBL2 cell inoculation, usually two hours apart. Compound 1 was administrated once a day (60 mg/kg for high dose or 20 mg/kg for low dose) for up to two weeks following tumor implantation. […]

F4/80+ macrophages = test: IHC staining of ear tissue with anti-F4/80; type: in vivo, C57BL/6 mice; conditions: day 7, 60 mg/kg oral daily
Procedure: as §4, §7

[9] = system: pancreatic ductal adenocarcinoma (PDAC); conditions: orally dosed, phase 1b study; cited from earlier work
[10] = ear tumors, treated two days after tumor implantation, 20 or 60 mg/kg oral
[11] = day 7, vs vehicle, normalized to GAPDH
[12] = day 15, 20 or 60 mg/kg oral daily, vs untreated or vehicle

## C[C@H]1CN([C@@H]2CC[C@@](C(=O)N3COc4c(cc(C(F)(F)F)cc4C(F)(F)F)C3)(C3CC3)OC2)CC[C@@H]1c1cccc(C(=O)O)c1 [Compound 1]
[1]; 20 or 60 mg/kg daily oral gavage for ten days, 24 hours after last dosing
  plasma concentration: correlated well to the feeding doses; also recorded: dose-dependently absorptive
[1]; oral
  oral bioavailability: orally-bioavailable
[2]; after two daily doses
  accumulation of neutrophils in the TME: not blocked
  relative abundance of neutrophils in the TME: increased
[2]; one week (day 7) of treatment, 60 mg/kg oral daily, vs vehicle, 60 mg/kg
  numbers of neutrophils / neutrophil-like cells in the TME: significantly larger numbers of neutrophils; also recorded: significant increase
MBL2 tumors [3]
  cervical draining lymph node size: reduction of cervical LN size
[4]; [10]
  CD11b+/F4/80+ macrophages, absolute numbers in whole ears: significantly decreased
  CD11b+/F4/80+ macrophages, percentage values of live cells: significantly decreased
[4]; oral administration for two days after tumor initiation, vehicle 17.7%
  macrophages in the skin (flow cytometry): 2.78 % of total leukocytes
[5]
  tumor cell necrosis: results in tumor cell necrosis
[6]; day 7, vs controls
  IL-10 expression in ears: similarly expressed
  TGF-beta expression in ears: similarly expressed
[6]; day 7, vs vehicle
  CCL2 expression in the TME: Upregulation
  CCL7 expression in the TME: Upregulation
  CXCL1/2 expression in the TME: noticeably increased
  IL-1beta expression in ears: upregulated to variable extents
  IL-6 expression in ears: upregulated to variable extents
  IL-12 expression in ears: found to increase
  IL-17a expression in ears: upregulated to variable extents
  S100A8/9 expression in the TME: noticeably increased
  granzyme B expression in ears: consistent upregulation
[6]; [11]
  CXCL10 mRNA level in ears: significantly increased
  CXCL11 mRNA level in ears: significantly increased
  IFN-γ mRNA level in ears: significantly increased
[7]
  tolerability / side effects: well tolerated; also recorded: without side effects
[7]; ten days
  weight changes: ≤ 20%
CD8+ T cells
  numbers of CD8+ T cells in the tumor/TME (IHC): significantly larger numbers of CD8+ T cells; also recorded: markedly increased
MBL2 tumors [8]; [12]
  ear thickness: significantly reduced
  ear weight: significantly reduced
MBL2 tumors [8]; single agent, two weeks of treatment, vs vehicle/control
  tumor growth / tumor size: smaller and sometimes nearly eradicated; also recorded: visible reduction in tumor growth; also recorded: inhibits tumor growth; also recorded: effectively delay the tumor growth, but was unable to eliminate the tumors
F4/80+ macrophages
  macrophages in the TME by IHC anti-F4/80: largely absent

## O=C(NCC(=O)N1CC[C@H](N[C@H]2CC[C@@](O)(c3ccc(-c4ncccn4)cn3)CC2)C1)c1cccc(C(F)(F)F)c1 [PF-04136309]
[9]
  TAM infiltration: reduction in TAM infiltration
  anti-tumor immune response: endogenous anti-tumor immune response
